From patent publication US20250243171A1, “QUINAZOLINE COMPOUNDS FOR TREATMENT OF DISEASE” (Arthrosi Therapeutics, Inc., priority 2021, published 2025)

What was measured:
Experiment in all cases: EC50 assay: Ba/F3 stable cell proliferation (CCK-8, 72 h)
Format in all cases: cell-based
Ba/F3 stable cells [1] = molecular target: T1, Ba/F3 stable cells (Homo sapiens, UniProt P00533, INS763FQEA, cells depend on it); conditions: Ba/F3-EGFR A763-Y764insFQEA cells
T1 construct: EC50 Ba/F3-EGFR A763-Y764insFQEA; other: Ba/F3-EGFR A763-Y764insFQEA cells, 72 h, CCK-8
Experimental: (§1) 4,000 Ba/F3 stable cells/90 μL/well were plated onto 96-well cell culture plate (Grenier, Cat.No. 655180) and incubated at 37° C. with a humidified atmosphere of 5% CO2 for 2 h. Then the cells were treated with 10 μL compounds at serial titration. The final DMSO concentration is 0.1%. The cells treated with 0.1% DMSO (Vetec, Cat.No.V900090) as a positive control (Max), and medium with 0.1% DMSO was as a negative control (Min). Incubated the cells at 37° C. for 72 h. 10 μL the cell proliferation reagent CCK-8 (Dojindo, Cat.No. CK04 1000T) was added into each well and incubated the plate at 37° C. for 4 hours, the GD value was measured by SPECTRAmax plus (Molecular Devices) at 450 nm. Data processing with Graphpad 7.0.

Ba/F3 stable cells [2] = molecular target: T2, Ba/F3 stable cells (Homo sapiens, UniProt P04626, DUP772-775, cells depend on it); conditions: Ba/F3-HER2 A775-G776insYVMA cells
T2 construct: EC50 Ba/F3-HER2 A775-G776insYVMA; other: Ba/F3-HER2 A775-G776insYVMA cells, 72 h, CCK-8
Experimental: as §1

Ba/F3 stable cells [3] = molecular target: T3, Ba/F3 stable cells (Homo sapiens, UniProt P00533, T790M/L858R, cells depend on it); conditions: Ba/F3-EGFR L858R-T790M cells
T3 construct: EC50 Ba/F3-EGFR L858R-T790M; other: Ba/F3-EGFR L858R-T790M cells, 72 h, CCK-8
Experimental: as §1

Ba/F3 stable cells [4] = molecular target: T4, Ba/F3 stable cells (Homo sapiens, UniProt P00533, DUP767-769, cells depend on it); conditions: Ba/F3-EGFR V769-D770insASV cells
T4 construct: EC50 Ba/F3-EGFR V769-D770insASV; other: Ba/F3-EGFR V769-D770insASV cells, 72 h, CCK-8
Experimental: as §1

Ba/F3 stable cells [5] = molecular target: T5, Ba/F3 stable cells (Homo sapiens, UniProt P00533, DUP771-773, cells depend on it); conditions: Ba/F3-EGFR H773-V774insNPH cells
T5 construct: EC50 Ba/F3-EGFR H773-V774insNPH; other: Ba/F3-EGFR H773-V774insNPH cells, 72 h, CCK-8
Experimental: as §1

Ba/F3 stable cells [6] = molecular target: T6, Ba/F3 stable cells (Homo sapiens, UniProt P00533, DUP768-770, cells depend on it); conditions: Ba/F3-EGFR D770-N771insSVD cells
T6 construct: EC50 Ba/F3-EGFR D770-N771insSVD; other: Ba/F3-EGFR D770-N771insSVD cells, 72 h, CCK-8
Experimental: as §1

T3 sequence (P00533 whole entry T790M/L858R): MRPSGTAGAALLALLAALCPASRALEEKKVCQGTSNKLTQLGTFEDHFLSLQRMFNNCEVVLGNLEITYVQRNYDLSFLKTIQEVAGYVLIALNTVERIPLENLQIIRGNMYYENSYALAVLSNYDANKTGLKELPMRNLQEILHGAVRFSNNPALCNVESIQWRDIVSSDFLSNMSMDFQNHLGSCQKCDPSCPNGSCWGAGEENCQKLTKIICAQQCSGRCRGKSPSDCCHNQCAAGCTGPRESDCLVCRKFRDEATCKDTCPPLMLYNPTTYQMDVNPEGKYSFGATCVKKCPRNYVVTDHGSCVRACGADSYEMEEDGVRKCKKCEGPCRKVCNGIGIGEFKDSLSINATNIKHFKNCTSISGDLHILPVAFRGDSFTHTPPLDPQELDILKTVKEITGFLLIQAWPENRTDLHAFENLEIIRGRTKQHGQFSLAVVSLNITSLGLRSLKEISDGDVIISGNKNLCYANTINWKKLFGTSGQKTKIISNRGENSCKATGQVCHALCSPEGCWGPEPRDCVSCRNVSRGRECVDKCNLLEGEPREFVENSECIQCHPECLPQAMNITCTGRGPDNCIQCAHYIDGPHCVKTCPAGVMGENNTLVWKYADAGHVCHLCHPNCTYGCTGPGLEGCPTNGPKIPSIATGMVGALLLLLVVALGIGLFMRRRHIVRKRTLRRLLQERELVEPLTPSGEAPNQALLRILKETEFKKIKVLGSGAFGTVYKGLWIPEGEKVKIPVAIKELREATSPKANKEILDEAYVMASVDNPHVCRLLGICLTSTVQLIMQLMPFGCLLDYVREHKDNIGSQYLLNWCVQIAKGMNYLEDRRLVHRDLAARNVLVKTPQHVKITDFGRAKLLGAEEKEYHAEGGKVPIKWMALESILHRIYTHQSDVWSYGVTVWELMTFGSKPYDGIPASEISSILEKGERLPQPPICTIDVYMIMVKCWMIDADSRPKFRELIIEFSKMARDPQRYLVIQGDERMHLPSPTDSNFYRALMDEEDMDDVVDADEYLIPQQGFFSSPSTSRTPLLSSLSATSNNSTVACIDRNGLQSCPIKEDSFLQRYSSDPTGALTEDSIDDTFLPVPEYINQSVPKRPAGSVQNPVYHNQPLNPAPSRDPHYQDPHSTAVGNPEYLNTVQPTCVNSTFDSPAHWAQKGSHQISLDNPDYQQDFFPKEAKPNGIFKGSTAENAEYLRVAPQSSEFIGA
T1 sequence (P00533 with tags, fused parts or gaps INS763FQEA): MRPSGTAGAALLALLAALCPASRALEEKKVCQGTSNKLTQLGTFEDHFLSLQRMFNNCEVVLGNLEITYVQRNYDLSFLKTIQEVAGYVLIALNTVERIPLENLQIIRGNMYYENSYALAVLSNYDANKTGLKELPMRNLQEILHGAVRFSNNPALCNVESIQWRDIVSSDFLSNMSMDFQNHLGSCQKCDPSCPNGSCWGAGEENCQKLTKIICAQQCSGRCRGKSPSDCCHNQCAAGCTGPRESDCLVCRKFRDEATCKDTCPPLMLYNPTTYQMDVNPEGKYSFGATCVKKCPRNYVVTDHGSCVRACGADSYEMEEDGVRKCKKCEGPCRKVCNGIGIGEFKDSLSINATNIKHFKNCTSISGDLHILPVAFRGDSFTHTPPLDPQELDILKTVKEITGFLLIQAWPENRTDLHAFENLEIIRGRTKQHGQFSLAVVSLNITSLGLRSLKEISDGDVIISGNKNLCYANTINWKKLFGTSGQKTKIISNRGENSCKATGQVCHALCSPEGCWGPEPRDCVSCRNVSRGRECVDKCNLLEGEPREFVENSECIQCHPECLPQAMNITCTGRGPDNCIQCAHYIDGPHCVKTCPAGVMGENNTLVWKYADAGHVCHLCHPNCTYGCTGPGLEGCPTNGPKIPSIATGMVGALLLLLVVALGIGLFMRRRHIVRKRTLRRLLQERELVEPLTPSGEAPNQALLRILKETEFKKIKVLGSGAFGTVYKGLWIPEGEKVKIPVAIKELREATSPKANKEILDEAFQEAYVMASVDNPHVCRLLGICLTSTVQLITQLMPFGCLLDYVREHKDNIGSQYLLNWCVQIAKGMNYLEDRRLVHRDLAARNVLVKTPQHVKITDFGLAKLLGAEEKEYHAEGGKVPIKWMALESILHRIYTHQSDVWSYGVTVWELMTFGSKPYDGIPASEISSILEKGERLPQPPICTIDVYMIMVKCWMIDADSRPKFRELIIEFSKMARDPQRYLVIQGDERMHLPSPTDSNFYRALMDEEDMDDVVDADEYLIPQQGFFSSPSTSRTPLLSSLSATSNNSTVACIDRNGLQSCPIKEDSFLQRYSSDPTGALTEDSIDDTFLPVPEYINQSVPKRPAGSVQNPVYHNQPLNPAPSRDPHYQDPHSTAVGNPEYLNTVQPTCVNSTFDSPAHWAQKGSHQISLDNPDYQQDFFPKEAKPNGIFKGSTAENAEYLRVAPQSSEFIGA
T2 sequence (P04626 with tags, fused parts or gaps DUP772-775): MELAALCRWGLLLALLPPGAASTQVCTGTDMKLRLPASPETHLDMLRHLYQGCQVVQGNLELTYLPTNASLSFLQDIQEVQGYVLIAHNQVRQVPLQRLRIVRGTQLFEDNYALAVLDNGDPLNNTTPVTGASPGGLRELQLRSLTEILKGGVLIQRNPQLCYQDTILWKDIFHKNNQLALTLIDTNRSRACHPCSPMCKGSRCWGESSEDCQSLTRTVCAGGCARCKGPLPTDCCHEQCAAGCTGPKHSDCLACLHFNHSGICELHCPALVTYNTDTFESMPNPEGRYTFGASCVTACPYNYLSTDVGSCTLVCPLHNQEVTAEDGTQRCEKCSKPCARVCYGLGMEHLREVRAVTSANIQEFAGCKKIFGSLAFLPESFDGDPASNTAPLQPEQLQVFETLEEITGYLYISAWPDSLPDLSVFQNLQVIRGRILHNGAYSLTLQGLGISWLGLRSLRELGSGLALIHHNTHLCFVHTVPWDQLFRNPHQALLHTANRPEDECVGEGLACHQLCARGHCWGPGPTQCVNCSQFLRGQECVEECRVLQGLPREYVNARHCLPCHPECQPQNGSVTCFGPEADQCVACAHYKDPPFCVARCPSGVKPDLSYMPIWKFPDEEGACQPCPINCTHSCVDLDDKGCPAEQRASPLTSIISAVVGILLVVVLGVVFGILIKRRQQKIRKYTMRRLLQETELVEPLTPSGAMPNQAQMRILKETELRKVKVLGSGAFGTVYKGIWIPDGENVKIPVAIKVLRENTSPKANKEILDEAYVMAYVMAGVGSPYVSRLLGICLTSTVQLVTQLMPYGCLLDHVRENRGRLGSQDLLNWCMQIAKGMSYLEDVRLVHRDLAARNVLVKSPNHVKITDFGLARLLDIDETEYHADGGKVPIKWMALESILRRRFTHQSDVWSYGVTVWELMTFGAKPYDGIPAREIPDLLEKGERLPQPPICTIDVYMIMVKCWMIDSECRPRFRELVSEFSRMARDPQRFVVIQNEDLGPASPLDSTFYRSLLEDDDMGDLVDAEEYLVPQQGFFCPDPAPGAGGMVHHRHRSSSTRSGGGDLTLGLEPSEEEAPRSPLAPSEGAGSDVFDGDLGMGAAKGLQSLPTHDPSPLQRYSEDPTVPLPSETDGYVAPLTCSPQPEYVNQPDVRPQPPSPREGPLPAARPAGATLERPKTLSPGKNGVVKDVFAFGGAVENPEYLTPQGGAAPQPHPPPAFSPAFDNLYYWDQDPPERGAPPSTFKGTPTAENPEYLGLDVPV
T4 sequence (P00533 with tags, fused parts or gaps DUP767-769): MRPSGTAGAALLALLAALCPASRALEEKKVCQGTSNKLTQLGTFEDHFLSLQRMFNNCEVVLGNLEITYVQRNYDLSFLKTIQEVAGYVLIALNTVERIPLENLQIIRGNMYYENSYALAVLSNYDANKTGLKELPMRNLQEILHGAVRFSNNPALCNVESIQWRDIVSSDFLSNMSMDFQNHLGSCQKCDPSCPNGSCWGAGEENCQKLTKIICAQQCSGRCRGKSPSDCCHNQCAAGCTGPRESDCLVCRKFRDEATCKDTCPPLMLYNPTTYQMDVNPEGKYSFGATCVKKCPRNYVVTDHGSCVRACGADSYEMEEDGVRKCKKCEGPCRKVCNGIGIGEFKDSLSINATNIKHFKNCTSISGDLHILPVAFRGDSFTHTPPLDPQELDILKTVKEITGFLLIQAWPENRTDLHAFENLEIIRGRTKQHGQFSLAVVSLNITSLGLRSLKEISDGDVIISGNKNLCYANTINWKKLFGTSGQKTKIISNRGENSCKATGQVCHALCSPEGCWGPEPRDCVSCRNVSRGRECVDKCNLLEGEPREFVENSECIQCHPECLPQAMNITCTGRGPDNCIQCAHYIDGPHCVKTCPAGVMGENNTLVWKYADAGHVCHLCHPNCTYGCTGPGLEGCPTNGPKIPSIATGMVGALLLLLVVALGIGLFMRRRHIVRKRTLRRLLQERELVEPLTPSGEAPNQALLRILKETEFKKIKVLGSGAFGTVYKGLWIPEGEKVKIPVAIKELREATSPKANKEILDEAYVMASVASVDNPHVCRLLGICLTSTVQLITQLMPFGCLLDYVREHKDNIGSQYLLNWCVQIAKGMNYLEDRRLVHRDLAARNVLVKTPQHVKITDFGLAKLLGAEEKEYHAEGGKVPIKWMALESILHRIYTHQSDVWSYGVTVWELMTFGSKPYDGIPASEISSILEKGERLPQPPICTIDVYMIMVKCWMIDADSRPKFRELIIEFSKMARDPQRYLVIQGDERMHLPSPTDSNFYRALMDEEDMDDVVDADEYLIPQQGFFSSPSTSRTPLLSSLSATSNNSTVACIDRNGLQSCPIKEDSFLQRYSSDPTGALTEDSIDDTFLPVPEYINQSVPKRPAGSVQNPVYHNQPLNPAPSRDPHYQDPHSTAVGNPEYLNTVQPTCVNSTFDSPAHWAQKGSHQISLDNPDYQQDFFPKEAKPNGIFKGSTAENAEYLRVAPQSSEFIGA

EC50 (Ba/F3 stable cells [1]) | EC50 (Ba/F3 stable cells [2]) | EC50 (Ba/F3 stable cells [3]) | EC50 (Ba/F3 stable cells [4]) | EC50 (Ba/F3 stable cells [5]) | EC50 (Ba/F3 stable cells [6]) | Structure (SMILES)
≤ 200 nM | > 1000 nM | > 1000 nM | 200 to 1000 nM | > 1000 nM | > 1000 nM | [2H]C([2H])([2H])Oc1cc2ncnc(Nc3ccc(Cl)c(Cl)c3F)c2cc1C1CN(C(=O)C(=C)F)C1 [Compound 39, 1-(3-(4-((3,4-dichloro-2-fluorophenyl)amino)-7-(methoxy-d3)quinazolin-6-yl)azetidin-1-yl)-2-fluoroprop-2-en-1-one]
≤ 200 nM | 200 to 1000 nM | 200 to 1000 nM | ≤ 200 nM | 200 to 1000 nM | 200 to 1000 nM | C=C(F)C(=O)N[C@H]1C[C@@H](Oc2cc3c(Nc4ccc(Cl)c(Cl)c4F)ncnc3cc2OC)C1 [Compound 40, N-((1s,3s)-3-((4-((3,4-dichloro-2-fluorophenyl)amino)-7-methoxyquinazolin-6-yl)oxy)cyclobutyl)-2-fluoroacrylamide]
200 to 1000 nM | > 1000 nM | > 1000 nM | > 1000 nM | > 1000 nM | > 1000 nM | C#CC(=O)N1CC(c2cc3c(Nc4ccc(OCc5ccccc5)c(Cl)c4F)ncnc3cc2OC)C1 [Compound 41, 1-(3-(4-((4-(benzyloxy)-3-chloro-2-fluorophenyl)amino)-7-methoxyquinazolin-6-yl)azetidin-1-yl)prop-2-yn-1-one]
≤ 200 nM | 200 to 1000 nM | > 1000 nM | ≤ 200 nM | 200 to 1000 nM | 200 to 1000 nM | COc1cc2ncnc(Nc3ccc(Cl)c(Cl)c3F)c2cc1OC1CC(NC(=O)/C=C/CN(C)C)C1 (stereo not drawn) [Compound 42, (E)-N-(3-((4-((3,4-dichloro-2-fluorophenyl)amino)-7-methoxyquinazolin-6-yl)oxy)cyclobutyl)-4-(dimethylamino)but-2-enamide]
≤ 200 nM | 200 to 1000 nM | > 1000 nM | 200 to 1000 nM | > 1000 nM | 200 to 1000 nM | CC#CC(=O)NC1CC(Oc2cc3c(Nc4ccc(Cl)c(Cl)c4F)ncnc3cc2OC)C1 (stereo not drawn) [Compound 43, N-(3-((4-((3,4-dichloro-2-fluorophenyl)amino)-7-methoxyquinazolin-6-yl)oxy)cyclobutyl)but-2-ynamide]
≤ 200 nM | 200 to 1000 nM | 200 to 1000 nM | ≤ 200 nM | ≤ 200 nM | 200 to 1000 nM | C#CC(=O)N[C@H]1C[C@H](Oc2cc3c(Nc4cccc5c4CCC5)ncnc3cc2OC)C1 [Compound 44, N-((1r,3r)-3-((4-((2,3-dihydro-1H-inden-4-yl)amino)-7-methoxyquinazolin-6-yl)oxy)cyclobutyl)propiolamide]
≤ 200 nM | > 1000 nM | > 1000 nM | > 1000 nM | > 1000 nM | > 1000 nM | C#CC(=O)N[C@H]1C[C@@H](Oc2cc3c(Nc4cccc5c4CCC5)ncnc3cc2OC)C1 [Compound 45, N-((1s,3s)-3-((4-((2,3-dihydro-1H-inden-4-yl)amino)-7-methoxyquinazolin-6-yl)oxy)cyclobutyl)propiolamide]
≤ 200 nM | ≤ 200 nM | ≤ 200 nM | ≤ 200 nM | ≤ 200 nM | 200 to 1000 nM | C#CC(=O)NC1CC(Oc2cc3c(Nc4cccc5ccccc45)ncnc3cc2OC)C1 (stereo not drawn) [Compound 46, N-(3-((7-methoxy-4-(naphthalen-1-ylamino)quinazolin-6-yl)oxy)cyclobutyl)propiolamide]
≤ 200 nM | 200 to 1000 nM | ≤ 200 nM | ≤ 200 nM | ≤ 200 nM | ≤ 200 nM | C#CC(=O)N[C@H]1C[C@@H](Oc2cc3c(Nc4cccc5ccccc45)ncnc3cc2OC)C1 [Compound 47, N-((1s,3s)-3-((7-methoxy-4-(naphthalen-1-ylamino)quinazolin-6-yl)oxy)cyclobutyl)propiolamide]
≤ 200 nM | 200 to 1000 nM | ≤ 200 nM | ≤ 200 nM | 200 to 1000 nM | 200 to 1000 nM | C#CC(=O)N[C@H]1C[C@H](Oc2cc3c(Nc4ccc5ccccc5c4)ncnc3cc2OC)C1 [Compound 48, N-((1r,3r)-3-((7-methoxy-4-(naphthalen-2-ylamino)quinazolin-6-yl)oxy)cyclobutyl)propiolamide]
≤ 200 nM | 200 to 1000 nM | ≤ 200 nM | ≤ 200 nM | ≤ 200 nM | ≤ 200 nM | C#CC(=O)NC1CC(Oc2cc3c(Nc4ccc(Cl)c(Cl)c4F)ncnc3cc2OC)C1 (stereo not drawn) [Compound 49, N-(3-((4-((3,4-dichloro-2-fluorophenyl)amino)-7-methoxyquinazolin-6-yl)oxy)cyclobutyl)propiolamide]
≤ 200 nM | 200 to 1000 nM | > 1000 nM | ≤ 200 nM | 200 to 1000 nM | > 1000 nM | C=C(F)C(=O)N1CCC(Oc2cc3c(Nc4ccc(Cl)c(Cl)c4F)ncnc3cc2OC)CC1 [Compound 50, 1-(4-((4-((3,4-dichloro-2-fluorophenyl)amino)-7-methoxyquinazolin-6-yl)oxy)piperidin-1-yl)-2-fluoroprop-2-en-1-one]
≤ 200 nM | 200 to 1000 nM | ≤ 200 nM | ≤ 200 nM | ≤ 200 nM | ≤ 200 nM | C#CC(=O)N1CCC(Oc2cc3c(Nc4ccc(Cl)c(Cl)c4F)ncnc3cc2OC)CC1 [Compound 52, 1-(4-((4-((3,4-dichloro-2-fluorophenyl)amino)-7-methoxyquinazolin-6-yl)oxy)piperidin-1-yl)prop-2-yn-1-one]
≤ 200 nM | ≤ 200 nM | ≤ 200 nM | ≤ 200 nM | ≤ 200 nM | ≤ 200 nM | C#CC(=O)N1CCC(Oc2cc3c(Nc4ccc5ccccc5c4)ncnc3cc2OC)CC1 [Compound 53, 1-(4-((7-methoxy-4-(naphthalen-2-ylamino)quinazolin-6-yl)oxy)piperidin-1-yl)prop-2-yn-1-one]
≤ 200 nM | ≤ 200 nM | ≤ 200 nM | ≤ 200 nM | ≤ 200 nM | ≤ 200 nM | C#CC(=O)N1CCC(Oc2cc3c(Nc4cccc5ccccc45)ncnc3cc2OC)CC1 [Compound 54, 1-(4-((7-methoxy-4-(naphthalen-1-ylamino)quinazolin-6-yl)oxy)piperidin-1-yl)prop-2-yn-1-one]
≤ 200 nM | 200 to 1000 nM | 200 to 1000 nM | ≤ 200 nM | ≤ 200 nM | 200 to 1000 nM | C#CC(=O)N1C2CCC1CC(Oc1cc3c(Nc4cccc5c4CCC5)ncnc3cc1OC)C2 (stereo not drawn) [Compound 56, 1-(3-((4-((2,3-dihydro-1H-inden-4-yl)amino)-7-methoxyquinazolin-6-yl)oxy)-8-azabicyclo[3.2.1]octan-8-yl)prop-2-yn-1-one]
≤ 200 nM | ≤ 200 nM | ≤ 200 nM | ≤ 200 nM | ≤ 200 nM | ≤ 200 nM | C#CC(=O)N1C2CCCC1CC(Oc1cc3c(Nc4cccc5ccccc45)ncnc3cc1OC)C2 (stereo not drawn) [Compound 57, 1-(3-((7-methoxy-4-(naphthalen-1-ylamino)quinazolin-6-yl)oxy)-9-azabicyclo[3.3.1]nonan-9-yl)prop-2-yn-1-one]
≤ 200 nM | ≤ 200 nM | ≤ 200 nM | ≤ 200 nM | ≤ 200 nM | 200 to 1000 nM | C#CC(=O)N1C2CCCC1CC(Oc1cc3c(Nc4ccc5ccccc5c4)ncnc3cc1OC)C2 (stereo not drawn) [Compound 58, 1-(3-((7-methoxy-4-(naphthalen-2-ylamino)quinazolin-6-yl)oxy)-9-azabicyclo[3.3.1]nonan-9-yl)prop-2-yn-1-one]
≤ 200 nM | 200 to 1000 nM | ≤ 200 nM | ≤ 200 nM | ≤ 200 nM | 200 to 1000 nM | C#CC(=O)N1C2CCC1CC(Oc1cc3c(Nc4ccc5ccccc5c4)ncnc3cc1OC)C2 (stereo not drawn) [Compound 59, 1-(3-((7-methoxy-4-(naphthalen-2-ylamino)quinazolin-6-yl)oxy)-8-azabicyclo[3.2.1]octan-8-yl)prop-2-yn-1-one]
